Results from paper PMC13311170, “Ganaxolone, an approved therapy for CDKL5-deficiency disorder, is an inhibitor of PTP1B” (The Journal of Biological Chemistry, 2026).

Target: T1, PTP1B (Homo sapiens, UniProt P18031)
T1 construct: gene PTPN1; WT PTP1B containing a His-tag
T1 sequence (P18031 1-435): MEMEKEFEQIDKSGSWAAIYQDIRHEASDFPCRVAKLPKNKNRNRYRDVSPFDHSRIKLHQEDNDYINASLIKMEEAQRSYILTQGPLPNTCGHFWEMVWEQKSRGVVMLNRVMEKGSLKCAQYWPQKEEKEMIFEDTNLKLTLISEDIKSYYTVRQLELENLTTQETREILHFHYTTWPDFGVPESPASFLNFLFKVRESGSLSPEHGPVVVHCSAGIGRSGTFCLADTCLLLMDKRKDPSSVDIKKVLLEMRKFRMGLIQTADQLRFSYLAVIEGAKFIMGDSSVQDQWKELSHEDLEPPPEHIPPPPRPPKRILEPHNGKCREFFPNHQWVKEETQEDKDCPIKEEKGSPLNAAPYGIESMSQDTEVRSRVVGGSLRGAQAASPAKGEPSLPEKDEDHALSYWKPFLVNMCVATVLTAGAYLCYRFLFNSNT
Assay: DiFMUP fluorescence phosphatase assay with […] purified PTP1B
Format: biochemical

Structure (SMILES): CC(=O)[C@H]1CC[C@H]2[C@@H]3CC[C@H]4C[C@](C)(O)CC[C@]4(C)[C@H]3CC[C@]12C [ganaxolone, 3α-Hydroxy-3β-methyl-5α-pregnan-20-one]
- IC50: 600 nM
